Measurements taken from article PMC12163822, “Synthesis and Pharmacological Characterization of a Novel Cannabinoid Receptor 1 Antagonist” (ACS Omega, 2025).

Legend:
human CB2 receptor = target: T1, human CB2 receptor (Homo sapiens, UniProt P34972); assay: [3H]CP55,940 inhibition curves in membranes from CHO cells overexpressing human CB2; format: binding
T1 construct: purchased Sigma-Aldrich; host or cells: CHO cells
Method: Membrane homogenates from CHO cells overexpressing human CB1 and CB2 receptors, as well as matched wild-type cells, were used to test newly synthesized compounds and were acquired from Sigma-Aldrich (St Louis, MO, USA).
(§1) To stop the reaction, an ice-cold wash buffer (50 mM Tris–HCl and 0.5% BSA, pH 7.4) was added. Then, the membranes were retained by vacuum filtration to a Whatman GF/C glass microfiber filter (Sigma-Aldrich, St. Louis, MO, USA) and the free radioligand was discarded. Filters with the bound radioligand were transferred to vials containing 5 mL of Ultima Gold cocktail (Revvity, Boston, MA, USA) and measured with a Packard Tri-Carb 2200CA liquid scintillation counter (Revvity, Boston, MA, USA).
A concentration of 0.02 mg/mL of commercial WT (as control) and CB1 and CB2 overexpressing CHO cells were used, and the same protocol described above was followed. Rat spleen homogenates were also used at a concentration of 0.1 mg/mL as a further characterization of binding to the CB2 receptor, given the high expression of this receptor in this tissue and the practical lack of CB1 in it.

CB2 receptor = target: T2, CB2 receptor (Rattus norvegicus, UniProt Q9QZN9); assay: [3H]CP55,940 inhibition curves in rat spleen membrane homogenates (CB2-enriched); format: binding, Sprague-Dawley rat
T2 construct: from tissue; host or cells: Sprague-Dawley rat spleen
T2 sequence (Q9QZN9 1-360): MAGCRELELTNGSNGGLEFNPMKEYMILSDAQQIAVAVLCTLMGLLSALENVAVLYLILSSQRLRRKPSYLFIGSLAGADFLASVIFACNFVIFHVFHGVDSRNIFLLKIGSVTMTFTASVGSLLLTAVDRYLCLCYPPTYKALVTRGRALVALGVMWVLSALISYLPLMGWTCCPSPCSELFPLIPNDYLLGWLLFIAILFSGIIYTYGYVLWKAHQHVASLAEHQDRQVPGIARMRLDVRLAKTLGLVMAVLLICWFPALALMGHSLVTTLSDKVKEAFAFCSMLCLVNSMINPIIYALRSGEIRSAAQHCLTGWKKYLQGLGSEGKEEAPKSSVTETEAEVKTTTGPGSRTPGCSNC
Method: Sprague–Dawley rats (n = 5) were anesthetized and sacrificed by decapitation. Spleens and brains were then quickly removed by dissection at 4 °C, and in the case of the brain tissue, the cortex was dissected for the preparation of the membrane homogenates. For this procedure, spleen and cortex samples were homogenized using a Teflon-glass grinder (15 up-and-down strokes at 800 rpm) in 30 volumes of homogenization buffer (1 mM EGTA, 3 mM MgCl2, 50 mM Tris–HCl; pH 7.4) supplemented with […], at 4 °C. The obtained homogenates were centrifuged for 5 min at 1500 rpm. Pellets were removed, and supernatants were centrifuged again for 15 min at 14,000 rpm. For washing, the obtained pellets were resuspended in a buffer and centrifuged again, and the supernatant was removed. The resulting aliquots were stored at −80 °C until use.
as §1, with “USA). […]” for “USA).”

CB1 receptor [1] = target: T3, CB1 receptor (Mus musculus, UniProt P47746); assay: [3H]CP55,940 receptor autoradiography in mouse brain slices; format: binding, Swiss mice; details: for [3H]CP55,940 binding: mouse, 3 nM [3H]CP55,940 in the presence of compound 10 µM
T3 construct: fresh frozen sections from brain samples from wild-type; from tissue; host or cells: Swiss mouse brain sections
T3 sequence (P47746 whole entry): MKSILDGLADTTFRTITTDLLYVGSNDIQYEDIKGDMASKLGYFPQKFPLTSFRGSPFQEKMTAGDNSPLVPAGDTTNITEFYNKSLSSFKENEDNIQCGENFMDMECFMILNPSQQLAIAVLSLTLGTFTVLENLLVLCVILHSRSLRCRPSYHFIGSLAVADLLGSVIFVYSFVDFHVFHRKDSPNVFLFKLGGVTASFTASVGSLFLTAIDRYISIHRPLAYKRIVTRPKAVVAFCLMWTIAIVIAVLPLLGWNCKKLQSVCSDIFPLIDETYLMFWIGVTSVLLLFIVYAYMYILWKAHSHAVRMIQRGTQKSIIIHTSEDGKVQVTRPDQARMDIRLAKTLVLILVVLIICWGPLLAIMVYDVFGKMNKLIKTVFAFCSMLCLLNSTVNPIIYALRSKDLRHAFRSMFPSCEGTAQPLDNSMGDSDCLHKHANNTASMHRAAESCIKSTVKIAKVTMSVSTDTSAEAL
Method: (§2) All brain sections were air-dried for 30 min and later immersed in Coplin jars for preincubation in a buffer containing 50 mM Tris–HCl and 1% of BSA (pH 7.4) for 30 min at room temperature. The objective of this preincubation was to remove endogenous ligands. […] Following incubation, tissue slices were washed with an ice-cold preincubation buffer, dipped in distilled water, and dried overnight. To generate autoradiograms, dry sections were placed in hermetically closed cassettes and exposed to β-radiation-sensitive films for 21 days at 4 °C. To calibrate the optical densities to fmol/mg tissue equivalent, [^3H]-microscales were exposed to the films. To quantify the calibrated films after scanning, Fiji software (Bethesda, […], USA) was used.

CB1 receptor [2] = target: T3, CB1 receptor; assay: Functional [35S]GTPγS autoradiography in mouse brain slices; format: biochemical, Swiss mice; details: for [35S]GTPγS binding, Stimulation (% over basal), CP55,940 + UVI3502 / [35S]GTPγS binding, Stimulation (% over basal): mouse; for [35S]GTPγS binding, Stimulation (% over basal), CP55,940 + UVI3502: CP55,940 and UVI3502 both at 10 µM; for [35S]GTPγS binding, Stimulation (% over basal): compound alone 10 µM
Method: All brain sections were air-dried for 30 min and then immersed in Coplin jars for preincubation (4 times, 15 min each time) in an HEPES-based buffer (50 mM HEPES, 100 mM NaCl, 3 mM MgCl2, 0.2 mM EGTA, 0.5% BSA; pH 7.4) at 30 °C. The objective of this preincubation was the removal of endogenous ligands. […] Basal [^35S]-GTPγS binding was defined in the absence of the agonists in two consecutive slices. To define nonspecific binding, 10 μM of unlabeled GTPγS was added to the incubation in another section. Following incubation, slices were twice washed in an ice-cold 50 mM HEPES buffer (pH 7.4), dried, and exposed for 48 h to β-radiation sensitive film with a set of [^14C] standards calibrated for [^35S]. Calibrated films were scanned and quantified using Fiji software (Fiji, Bethesda, […], USA). The signal corresponding to nonspecific binding was previously subtracted from the basal and agonist-stimulated binding. Then, the data was expressed as the percentage of stimulation over basal following the formula: ([^35S]-GTPγS agonist-stimulated binding) × 100/([^35S]-GTPγS basal binding)-100.

CB1 receptor [3] = target: CB1 receptor (Rattus norvegicus, UniProt P20272); assay: [3H]CP55,940 receptor autoradiography in rat brain slices; format: binding, Sprague-Dawley rat; design: fresh frozen sections from brain samples from wild-type; from tissue; host or cells: Sprague-Dawley rat brain sections; details: for [3H]CP55,940 binding: rat, 3 nM [3H]CP55,940 in the presence of compound 10 µM
Sequence of CB1 receptor (Rattus norvegicus, UniProt P20272) (P20272 whole entry): as the sequence (P47746 whole entry) above, with D95E counted along it
Method: as §2

[4] = mouse brain slices, 10 µM, result in words
[5] = nucleus basalis magnocellularis

T1 sequence (P34972 whole entry): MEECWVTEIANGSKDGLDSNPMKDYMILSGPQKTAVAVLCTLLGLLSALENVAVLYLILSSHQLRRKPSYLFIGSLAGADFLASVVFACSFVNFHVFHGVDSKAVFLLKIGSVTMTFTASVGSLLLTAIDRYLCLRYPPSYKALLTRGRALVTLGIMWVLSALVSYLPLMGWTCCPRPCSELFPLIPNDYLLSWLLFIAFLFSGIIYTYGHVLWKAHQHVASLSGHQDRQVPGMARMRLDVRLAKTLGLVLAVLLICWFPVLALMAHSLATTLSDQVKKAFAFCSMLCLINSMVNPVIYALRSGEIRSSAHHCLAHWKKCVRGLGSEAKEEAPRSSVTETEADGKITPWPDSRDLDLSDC

IC50 (human CB2 receptor): 16.2 ± 0.131 µM
maximum inhibition of [3H]CP55,940 binding (human CB2 receptor; CB2 overexpressing CHO membranes): approximately 83%
IC50 (CB2 receptor): 10.23 ± 0.0178 µM
maximum inhibition of [3H]CP55,940 binding (CB2 receptor; rat spleen membrane homogenates): ~61%
inhibition of [3H]CP55,940 binding in brain areas (CB1 receptor [1]; [4]): partially inhibit
[3H]CP55,940 binding (CB1 receptor [1]; amygdala): 154 ± 8 fmol/mg t.e.
[3H]CP55,940 binding (CB1 receptor [1]; cerebellum (gray matter)): 409 ± 207 fmol/mg t.e.
[3H]CP55,940 binding (CB1 receptor [1]; cortex): 118 ± 18 fmol/mg t.e.
[3H]CP55,940 binding (CB1 receptor [1]; globus pallidus): 698 ± 16 fmol/mg t.e.
[3H]CP55,940 binding (CB1 receptor [1]; hippocampus dorsal): 181 ± 9 fmol/mg t.e.
[3H]CP55,940 binding (CB1 receptor [1]; [5]): 202 ± 19 fmol/mg t.e.
[3H]CP55,940 binding (CB1 receptor [1]; striatum): 159 ± 11 fmol/mg t.e.
[3H]CP55,940 binding (CB1 receptor [1]; substantia nigra): 1075 ± 22 fmol/mg t.e.
activity on CP55,940-evoked [35S]GTPγS stimulation (CB1 receptor [2]; [4]): acts as an antagonist
[35S]GTPγS binding, Stimulation (% over basal), CP55,940 + UVI3502 (CB1 receptor [2]; amygdala): 0 ± 78 % over basal
[35S]GTPγS binding, Stimulation (% over basal) (CB1 receptor [2]; amygdala): -16 ± 51 % over basal
[35S]GTPγS binding, Stimulation (% over basal), CP55,940 + UVI3502 (CB1 receptor [2]; cerebellum (gray matter)): 6 ± 23 % over basal
[35S]GTPγS binding, Stimulation (% over basal) (CB1 receptor [2]; cerebellum (gray matter)): -43 ± 9 % over basal
[35S]GTPγS binding, Stimulation (% over basal), CP55,940 + UVI3502 (CB1 receptor [2]; cortex): -51 ± 11 % over basal
[35S]GTPγS binding, Stimulation (% over basal) (CB1 receptor [2]; cortex): -55 ± 9 % over basal
[35S]GTPγS binding, Stimulation (% over basal), CP55,940 + UVI3502 (CB1 receptor [2]; globus pallidus): 91 ± 104 % over basal
[35S]GTPγS binding, Stimulation (% over basal) (CB1 receptor [2]; globus pallidus): -46 ± 29 % over basal
[35S]GTPγS binding, Stimulation (% over basal), CP55,940 + UVI3502 (CB1 receptor [2]; hippocampus dorsal): -36 ± 8 % over basal
[35S]GTPγS binding, Stimulation (% over basal) (CB1 receptor [2]; hippocampus dorsal): -38 ± 12 % over basal
[35S]GTPγS binding, Stimulation (% over basal), CP55,940 + UVI3502 (CB1 receptor [2]; [5]): -30 ± 37 % over basal
[35S]GTPγS binding, Stimulation (% over basal) (CB1 receptor [2]; [5]): -20 ± 65 % over basal
[35S]GTPγS binding, Stimulation (% over basal), CP55,940 + UVI3502 (CB1 receptor [2]; striatum): -52 ± 13 % over basal
[35S]GTPγS binding, Stimulation (% over basal) (CB1 receptor [2]; striatum): -52 ± 18 % over basal
[35S]GTPγS binding, Stimulation (% over basal), CP55,940 + UVI3502 (CB1 receptor [2]; substantia nigra): 181 ± 128 % over basal
[35S]GTPγS binding, Stimulation (% over basal) (CB1 receptor [2]; substantia nigra): -58 ± 11 % over basal
inhibition of [3H]CP55,940 binding in brain areas (CB1 receptor [3]; rat brain slices, 10 µM, result in words): partially inhibit
[3H]CP55,940 binding (CB1 receptor [3]; amygdala): 136 ± 52 fmol/mg t.e.
[3H]CP55,940 binding (CB1 receptor [3]; cerebellum (gray matter)): 421 ± 126 fmol/mg t.e.
[3H]CP55,940 binding (CB1 receptor [3]; cortex): 122 ± 25 fmol/mg t.e.
[3H]CP55,940 binding (CB1 receptor [3]; globus pallidus): 572 ± 40 fmol/mg t.e.
[3H]CP55,940 binding (CB1 receptor [3]; hippocampus dorsal): 184 ± 26 fmol/mg t.e.
[3H]CP55,940 binding (CB1 receptor [3]; [5]): 147 ± 18 fmol/mg t.e.
[3H]CP55,940 binding (CB1 receptor [3]; striatum): 291 ± 18 fmol/mg t.e.
[3H]CP55,940 binding (CB1 receptor [3]; substantia nigra): 1364 ± 581 fmol/mg t.e.
Compound: CCOC(=O)/C=C1\C(=O)Nc2ccc(C)cc2-c2c1c1cc(OC)ccc1n2C(=O)OCC [UVI3502]
